The values that follow come from patent US7030145B2, “Pyridinyl derivatives for the treatment of depression” (Bristol-Myers Squibb Company, priority 2003, dated 2006).

pKi: −log10 of the molar value. Some results are limits rather than exact numbers.

The target in data set [1] is T1, cloned human CRF-R1 receptors (Homo sapiens, UniProt P34998).
T1 construct: the coding region was amplifies by PCR from start to stop codons; expressed in transfected cells; membranes
T1 sequence (P34998 24-415): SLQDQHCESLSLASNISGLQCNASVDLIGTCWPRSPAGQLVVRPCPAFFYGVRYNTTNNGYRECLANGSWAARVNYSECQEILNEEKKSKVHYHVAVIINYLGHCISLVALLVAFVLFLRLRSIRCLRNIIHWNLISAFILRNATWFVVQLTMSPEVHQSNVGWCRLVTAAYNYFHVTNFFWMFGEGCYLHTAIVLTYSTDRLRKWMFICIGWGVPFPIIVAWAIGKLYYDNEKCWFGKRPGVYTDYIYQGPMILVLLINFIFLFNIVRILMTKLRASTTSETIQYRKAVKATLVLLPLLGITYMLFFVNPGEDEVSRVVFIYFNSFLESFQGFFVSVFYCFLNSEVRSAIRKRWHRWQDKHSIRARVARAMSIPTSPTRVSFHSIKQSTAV
As to the kind of experiment: CRF-R1 receptor binding assay (inhibition of 125I-ovine-CRF binding to cell membranes). On the set-up: key to activity (Ki class in the CRF assays): a: Ki≦100 nM; b: 100 nM<Ki≦500 nM; c: 500 nM<Ki≦5,000 nM; activity reported in percent inhibition at 10 μM. Conditions: membranes of 293EBNA cells transfected with hCRFR1, class d = reported as percent inhibition at 10 μM, figures not given; for pKi: read-out: activity (Ki class in the CRF assays). From the text: The following is a description of the isolation of cell membranes containing cloned human CRF-R1 receptors for use in a standard binding assay as well as a description of the assay itself.
Messenger RNA was isolated from human hippocampus. […]. The mRNA was reverse transcribed using oligo (dt) 12–18 and the coding region was amplifies by PCR from start to stop codons. The resulting PCR fragment was cloned into the EcoRV site of pGEMV, from whence the insert was reclaimed using XhoI+XbaI and cloned into the XhoI+XbaI sites of vector pm3 as (which contains a CMV promoter, the SV′t′ splice and early poly A signals, an Eptein-Barr viral origin of replication, and a hygromycin selectable marker). The resulting expression vector, called phchCRFR was transfected in 293EBNA cells and cells retaining the episome were selected in the presence of […] hygromycin. Cells surviving 4 weeks of selection in hygromycin were pooled, adapted to growth in suspension and used to generate membranes for the binding assay described below. Individual aliquots containing approximately 1×10^8 of the suspended cells were then centrifuged to form a pellet and frozen. For the binding assay a frozen pellet described above containing 293EBNA cells transfected with hCRFR1 receptors is homogenized in 10 mL of ice cold tissue buffer (50 mM HEPES buffer pH 7.0, containing 10 MM MgCl2, 2 mM EGTA, 1 μg/mL apotinin, 1 μg/mL leupeptin and 1 μg/mL pepstatin). The homoginate is centrifuged at 40,000×g for 12 min and the resulting pellet rehomogenized in 10 mL of tissue buffer. After another centrifugation at 40,000×g for 12 min, the pellet is resuspended to a protein concentration of 360 μg/mL to be used in the assay.
Binding assays are performed in 96 well plates; each well having a 300 μL capacity. To each well is added 50 μL of test drug dilutions (final concentration of drugs range from 10^−10–10^−5 M), 100 μL of ^125I-ovine-CRF (^125I-o-CRF) (final concentration 150 pM) and 150 μL of the cell homoginate described above. Plates are then allowed to incubate at room temperature for 2 hours before filtering the incubate over GF/F filters (presoaked with 0.3% polyethyleneimine) using an appropriate cell harvester. Filters are rinsed 2 times with ice cold assay buffer before removing individual filters and assessing them for radioactivity on a gamma counter.
Curves of the inhibition of ^125I-o-CRF binding to cell membranes at various dilutions of test drug are analyzed by the iterative curve fitting program LIGAND [P. J. Munson and D. Rodbard, Anal. Biochem., 107:220 (1980), which provides Ki values for inhibition which are then used to assess biological activity. […]
Messenger RNA was isolated from human hippocampus. The mRNA was isolated from human hippocampus. The mRNA was reverse transcribed using oligo (dt) 12–18 and the coding region was amplifies by PCR from start to stop codons. The resulting PCR fragment was cloned into the EcoRV site of pGEMV, from whence the insert was reclaimed using XhoI+XbaI and cloned into the XhoI+XbaI sites of vector pm3 as (which contains a CMV promoter, the SV′t′ splice and early poly A signals, an Eptein-Barr viral origin of replication, and a hygromycin selectable marker). The resulting expression vector, called phchCRFR was transfected in 293EBNA cells and cells retaining the episome were selected in the presence of […] hygromycin. Cells surviving 4 weeks of selection in hygromycin were pooled, adapted to growth in suspension and used to generate membranes for the binding assay described below. […]
A frozen pellet described above containing 293EBNA cells transfected with hCRFR1 receptors or the rat frontal cortex tissue dissected from frozen rat brains was prepared as the source of membranes expressing CRF1 receptors used in binding assays. […]

One may read the melting point as the temperature, or range, at which the solid turns liquid. For `COc1cc(Cl)c(Nc2nc(C)ccc2S(=O)(=O)c2ccc(OCc3ccccc3OC)cc2)cc1F` [Example 2, (2-Chloro-5-fluoro-4-methoxyphenyl)-{3-[4-(2-methoxybenzyloxy)-benzenesulfonyl]-6-methylpyridin-2-yl}-amine], the melting point lay within 62 to 64 °C. In addition, the “activity (Ki class in the CRF assays)” value in data set [1] is reported as “d”.
The pKi is the Ki on a negative log10 scale, so that one unit is a factor of ten. For `Cc1cc(C)c(Nc2nc(C)ccc2S(=O)(=O)c2ccc(OCCCCC#N)cc2)c(C)c1` [Example 15, 5-{4-[6-Methyl-2-(2,4,6-trimethylphenylamino)-pyridine-3-sulfonyl]-phenoxy}-pentanenitrile], the melting point lay within 115 to 116 °C. Further, the pKi in data set [1] was 6.30 to 7.00.
For `Cc1cc(C)c(Nc2nc(C)ccc2S(=O)(=O)c2cccc(O)c2)c(C)c1` [Example 57, 3-[6-Methyl-2-(2,4,6-trimethylphenylamino)-pyridine-3-sulfonyl]-phenol] the same measures were 196 to 197 °C and 6.30 to 7.00.
Taken in the same sequence, the figures for `Cc1cc(C)c(Nc2nc(C)ccc2S(=O)(=O)c2ccc(O)cc2)c(C)c1` [Example 10, 4-[6-Methyl-2-(2,4,6-trimethylphenylamino)-pyridine-3-sulfonyl]-phenol] were 226 to 228 °C and 5.30 to 6.30.
For `Cc1cc(C)c(Nc2nc(C)ccc2S(=O)(=O)c2ccc(OCc3ccccn3)cc2)c(C)c1` [Example 19, {6-Methyl-3-[4-(pyridin-2-ylmethoxy)-benzenesulfonyl]-pyridin-2-yl}-(2,4,6-trimethylphenyl)-amine] the same measures were 182 to 184 °C and 6.30 to 7.00.
`Cc1cc(C)c(Nc2nc(C)ccc2S(=O)(=O)c2ccc(OCc3ccccc3C#N)cc2)c(C)c1` [Example 28, 2-{4-[6-Methyl-2-(2,4,6-trimethylphenylamino)-pyridine-3-sulfonyl]-phenoxymethyl}-benzonitrile] came in with a melting point of 208 to 210 °C. The pKi in data set [1] was at least 7.00.
In the case of `Cc1cc(C)c(Nc2nc(C)ccc2S(=O)(=O)c2ccc(C(=O)c3ccccc3)cc2)c(C)c1` [Example 54, {4-[6-Methyl-2-(2,4,6-trimethylphenylamino)-pyridine-3-sulfonyl]-phenyl}-phenyl-methanone], the melting point is 222 to 225 °C. Besides, the pKi in data set [1] was at least 7.00.
`COc1ccccc1COc1ccc(S(=O)(=O)c2ccc(C)nc2Nc2cc(OC)c(OC)cc2C)cc1` [Example 4, (4,5-Dimethoxy-2-methylphenyl)-{3-[4-(2-methoxybenzyloxy)-benzenesulfonyl]-6-methylpyridin-2-yl}-amine] registered a melting point of 62 to 66 °C. Also, the “activity (Ki class in the CRF assays)” value in data set [1] was “d”.
As to `COc1ccc(C(C)=O)cc1COc1ccc(S(=O)(=O)c2ccc(C)nc2Nc2c(C)cc(C)cc2C)cc1` [Example 35], the melting point is 141 to 143 °C. The pKi in data set [1] was 6.30 to 7.00.
For the compound `COc1ccc(OC)c(COc2ccc(S(=O)(=O)c3ccc(C)nc3Nc3c(C)cc(C)cc3C)cc2)c1` [Example 31, {3-[4-(2,5-Dimethoxybenzyloxy)-benzenesulfonyl]-6-methyl-pyridin-2-yl}-(2,4,6-trimethylphenyl)-amine], the melting point lay in the range of 128 to 130 °C. In addition, the pKi in data set [1] is at least 7.00.
For `Cc1cc(C)c(Nc2nc(C)ccc2S(=O)(=O)c2ccc(OCc3cccc(F)c3F)cc2)c(C)c1` [Example 33, {3-[4-(2,3-Difluorobenzyloxy)-benzenesulfonyl]-6-methylpyridin-2-yl}-(2,4,6-trimethylphenyl)-amine], the melting point lay in the range of 136 to 138 °C. Also, in data set [1], the pKi was at least 7.00.
`COc1ccccc1COc1ccc(S(=O)(=O)c2ccc(C)nc2Nc2ccc(OC(F)F)cc2Cl)cc1` [Example 5, (2-Chloro-4-difluoromethoxyphenyl)-{3-[4-(2-methoxybenzyloxy)-benzenesulfonyl]-6-methylpyridin-2-yl}-amine] came in with a melting point of 124 to 125 °C. In data set [1], the “activity (Ki class in the CRF assays)” value is listed as “d”.
Turning to `Cc1cc(C)c(Nc2nc(C)ccc2S(=O)(=O)c2ccc(OCc3ccccc3)cc2)c(C)c1` [Example 11, [3-(4-Benzyloxybenzenesulfonyl)-6-methylpyridin-2-yl]-(2,4,6-trimethylphenyl)-amine], the melting point lay within 158 to 160 °C. Further, in data set [1], the pKi was at least 7.00.
In turn, `COc1cc(COc2ccc(S(=O)(=O)c3ccc(C)nc3Nc3c(C)cc(C)cc3C)cc2)cc(OC)c1` [Example 30, {3-[4-(3,5-Dimethoxybenzyloxy)-benzenesulfonyl]-6-methyl-pyridin-2-yl}-(2,4,6-trimethylphenyl)-amine] returned a melting point of 107 to 109 °C. Moreover, the pKi in data set [1] is at least 7.00.
For `COc1cccc(COc2ccc(S(=O)(=O)c3ccc(C)nc3Nc3c(C)cc(C)cc3C)cc2)c1` [Example 26, {3-[4-(3-Methoxybenzyloxy)-benzenesulfonyl]-6-methylpyridin-2-yl}-(2,4,6-trimethylphenyl)-amine], the melting point was in the range of 124 to 126 °C. Also, the negative-log Ki (pKi) in data set [1] is at least 7.00.
Taken in the same sequence, the figures for `CCOc1cccc(S(=O)(=O)c2ccc(C)nc2Nc2c(C)cc(C)cc2C)c1` [Example 58, [3-(3-Ethoxybenzenesulfonyl)-6-methylpyridin-2-yl]-(2,4,6-trimethylphenyl)-amine] were 96 to 97 °C and 6.30 to 7.00.
For the compound `COc1ccccc1COc1ccc(S(=O)(=O)c2ccc(C)nc2Nc2ccc(S(C)(=O)=O)cc2Cl)cc1` [Example 7, (2-Chloro-4-methanesulfonylphenyl)-{3-[4-(2-methoxybenzyloxy)-benzenesulfonyl]-6-methylpyridin-2-yl}-amine], the melting point is 100 to 102 °C. Also, in data set [1], the “activity (Ki class in the CRF assays)” value is recorded as “d”.
For the compound `CCC(Oc1ccc(S(=O)(=O)c2ccc(C)nc2Nc2c(C)cc(C)cc2C)cc1)C(=O)OC` (stereo not shown) [Example 18, 2-{4-[6-Methyl-2-(2,4,6-trimethylphenylamino)-pyridine-3-sulfonyl]-phenoxy}-butyric acid methyl ester], the melting point lay in the range of 111 to 113 °C. The pKi in data set [1] was 6.30 to 7.00.
In turn, `COc1cccc(S(=O)(=O)c2ccc(C)nc2Nc2c(C)cc(C)cc2C)c1` [Example 56, [3-(3-Methoxybenzenesulfonyl)-6-methylpyridin-2-yl]-(2,4,6-trimethylphenyl)-amine] came in with a melting point of 87 to 88 °C. Besides, the pKi in data set [1] is 6.30 to 7.00.
For `Cc1cc(C)c(Nc2nc(C)ccc2S(=O)(=O)c2ccc(Br)cc2)c(C)c1` [Example 46, [3-(4-Bromobenzenesulfonyl)-6-methylpyridin-2-yl]-(2,4,6-trimethylphenyl)-amine] the same measures were 140 to 141 °C and at least 7.00.
